Laboratory results taken from ChEMBL document CHEMBL4251732, “Discovery of Novel Indoleamine 2,3-Dioxygenase 1 (IDO1) and Histone Deacetylase (HDAC) Dual Inhibitors” (ACS Med Chem Lett, 2018).
Activity calls are given as the source filed them. The calls are words filed in the database; no cut-off is given here.

What was measured:
[1] = target: Histone deacetylase 1 (Homo sapiens, UniProt Q13547); test: Inhibition of recombinant human full length HDAC1 using fluorogenic substrate 3 after 30 mins by fluorescence assay
[2] = system: HCT-116; test: Cell cycle arrest in human HCT116 cells assessed as accumulation at G2/M phase by propidium iodide staining based flow cytometry; type: functional; details: TDE = time-dependent effect
[3] = system: Lewis lung carcinoma cell line; test: Antiproliferative activity against mouse LLC cells after 48 hrs by CCK-8 assay; type: functional, cell-based
[4] = Stability of the compound in PBS buffer after 24 hrs; type: physicochemical
[5] = system: Mus musculus; test: Toxicity in immunocompetent C57BL/6 mouse assessed as body weight loss at 100 mg/kg, po bid administered via gavage for 14 consecutive days measured 3 times per week; type: organism-based; details: in vivo
[6] = Half life in mouse liver microsomes at 1 uM by LC-MS/MS analysis; type: ADME, microsome
[7] = system: HCT-116; test: Induction of apoptosis in human HCT116 cells at 10 uM after 48 hrs by Annexin V-FITC/propidium iodide staining based flow cytometry relative to control; type: functional
[8] = system: A549; test: Antiproliferative activity against human A549 cells after 48 hrs by CCK-8 assay; type: functional, cell-based; details: A549, 48 h
[9] = Half life in immunocompetent C57BL/6 mouse implanted with mouse LLC cells at 100 mg/kg, po bid administered via gavage; type: ADME, organism-based; details: in vivo
[10] = system: Mus musculus; test: In vivo inhibition of IDO1 in wild type C57BL/6 mouse assessed as reduction in kynurenine levels in plasma at 100 mg/kg, po administered via gavage after 3 to 8 hrs by LC-MS/MS analysis; type: functional, organism-based
[11] = target: T1, Protein deacetylase HDAC6 (Homo sapiens, UniProt Q9UBN7); test: Inhibition of HDAC6 (unknown origin) using substrate 3 after 30 mins by fluorescence assay
T1 sequence (Q9UBN7 whole entry): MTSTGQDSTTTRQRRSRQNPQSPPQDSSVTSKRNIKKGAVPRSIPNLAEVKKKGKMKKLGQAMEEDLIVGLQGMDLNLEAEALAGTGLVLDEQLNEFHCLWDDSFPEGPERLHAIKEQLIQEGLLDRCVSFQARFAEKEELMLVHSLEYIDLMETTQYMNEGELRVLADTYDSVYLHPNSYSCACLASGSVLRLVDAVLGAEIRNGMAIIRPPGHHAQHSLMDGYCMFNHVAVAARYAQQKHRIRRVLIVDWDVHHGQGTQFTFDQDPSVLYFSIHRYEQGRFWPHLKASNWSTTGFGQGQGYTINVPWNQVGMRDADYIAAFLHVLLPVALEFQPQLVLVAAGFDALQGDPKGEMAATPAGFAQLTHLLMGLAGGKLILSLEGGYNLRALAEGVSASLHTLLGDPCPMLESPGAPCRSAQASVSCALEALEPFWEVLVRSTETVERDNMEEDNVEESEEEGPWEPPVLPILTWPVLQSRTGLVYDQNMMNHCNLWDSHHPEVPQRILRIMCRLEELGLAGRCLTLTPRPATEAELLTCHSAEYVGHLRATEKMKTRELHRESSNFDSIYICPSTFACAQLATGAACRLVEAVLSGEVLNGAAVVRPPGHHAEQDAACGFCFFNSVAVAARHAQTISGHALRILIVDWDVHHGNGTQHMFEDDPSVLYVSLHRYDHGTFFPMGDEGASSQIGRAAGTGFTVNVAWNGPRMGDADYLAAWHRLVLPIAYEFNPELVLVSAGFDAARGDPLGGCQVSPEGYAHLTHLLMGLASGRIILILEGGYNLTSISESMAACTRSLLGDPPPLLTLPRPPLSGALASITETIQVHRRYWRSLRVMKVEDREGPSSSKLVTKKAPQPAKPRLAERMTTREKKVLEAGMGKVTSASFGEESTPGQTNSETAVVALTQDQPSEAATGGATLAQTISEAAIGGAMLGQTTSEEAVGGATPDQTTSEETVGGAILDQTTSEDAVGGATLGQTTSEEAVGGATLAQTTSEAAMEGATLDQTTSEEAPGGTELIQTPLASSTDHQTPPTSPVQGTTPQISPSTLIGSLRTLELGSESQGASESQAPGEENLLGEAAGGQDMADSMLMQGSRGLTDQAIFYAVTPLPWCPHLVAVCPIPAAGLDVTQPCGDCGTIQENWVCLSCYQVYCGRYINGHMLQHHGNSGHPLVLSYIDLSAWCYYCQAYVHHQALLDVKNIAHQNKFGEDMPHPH

[12] = system: HCT-116; test: Cell cycle arrest in human HCT116 cells assessed as accumulation at G2/M phase up to 48 hrs by propidium iodide staining based flow cytometry (reference value: 27.2%); type: functional
[13] = Oral bioavailability in Sprague-Dawley rat at 100 mg/kg administered as single dose via gavage by LC-MS/MS analysis; type: ADME, organism-based; details: in vivo
[14] = system: HeLa; test: Cytotoxicity against human HeLa cells assessed as inhibition of cell growth after 48 hrs by CCK-8 assay; type: cell-based
[15] = target: Histone deacetylase 2 (Homo sapiens, UniProt Q92769); test: Inhibition of HDAC2 (unknown origin) using substrate 3 after 30 mins by fluorescence assay
[16] = system: CT26; test: Antiproliferative activity against mouse CT26 cells after 48 hrs by CCK-8 assay; type: functional, cell-based; details: CT26, 48 h
[17] = Half life in Sprague-Dawley rat at 100 mg/kg, po administered as single dose via gavage by LC-MS/MS analysis; type: ADME, organism-based; details: in vivo
[18] = target: T2, Indoleamine 2,3-dioxygenase 1 (Homo sapiens, UniProt P14902); test: Inhibition of recombinant human GST-tagged IDO1 (1 to 404 residues) using D-Tryptophan as substrate
[19] = AUC in immunocompetent C57BL/6 mouse implanted with mouse LLC cells at 100 mg/kg, po bid administered via gavage; type: ADME, organism-based; details: in vivo
[20] = system: HCT-116; test: Induction of apoptosis in human HCT116 cells at 5 uM after 48 hrs by Annexin V-FITC/propidium iodide staining based flow cytometry relative to control; type: functional
[21] = system: HCT-116; test: Induction of apoptosis in human HCT116 cells at 20 uM after 48 hrs by Annexin V-FITC/propidium iodide staining based flow cytometry relative to control; type: functional
[22] = Tmax in Sprague-Dawley rat at 100 mg/kg, po administered as single dose via gavage by LC-MS/MS analysis; type: ADME, organism-based; details: in vivo
[23] = system: Lewis lung carcinoma cell line; test: Antitumor activity against mouse LLC cells implanted in immunocompetent C57BL/6 mouse assessed as tumor growth inhibition at 100 mg/kg, po bid administered via gavage for 14 consecutive days measured every 4 days relative to control; type: functional; details: 96 h, read-out: TGI
[24] = Cmax in Sprague-Dawley rat at 2 mg/kg, iv administered as single dose by LC-MS/MS analysis; type: ADME, organism-based; design: dose 2 mg/kg, route intravenous; details: in vivo
[25] = Tmax in Sprague-Dawley rat at 2 mg/kg, iv administered as single dose by LC-MS/MS analysis; type: ADME, organism-based; details: in vivo
[26] = system: HT-29; test: Antiproliferative activity against human HT-29 cells after 48 hrs by CCK-8 assay; type: functional, cell-based; details: HT-29, 48 h
[27] = target: Histone deacetylase 3 (Homo sapiens, UniProt O15379); test: Inhibition of HDAC3 (unknown origin) using substrate 3 after 30 mins by fluorescence assay
[28] = AUC (0 to infinity) in Sprague-Dawley rat at 100 mg/kg, po administered as single dose via gavage by LC-MS/MS analysis; type: ADME, organism-based; design: dose 100 mg/kg, time infinity, route oral; details: in vivo
[29] = target: T2, Indoleamine 2,3-dioxygenase 1; test: Inhibition of IDO1 in IFN-gamma-stimulated human HeLa cells assessed as decrease in kynurenine levels after 48 hrs; type: cell-based
[30] = Apparent clearance in mouse liver microsomes; type: ADME, microsome
[31] = system: HCT-116; test: Induction of apoptosis in human HCT116 cells after 48 hrs by Annexin V-FITC/propidium iodide staining based flow cytometry; type: functional, cell-based
[32] = Half life in Sprague-Dawley rat at 2 mg/kg, iv administered as single dose by LC-MS/MS analysis; type: ADME, organism-based; details: in vivo
[33] = system: HCT-116; test: Antiproliferative activity against human HCT116 cells after 48 hrs by CCK-8 assay; type: functional, cell-based; details: HCT-116, 48 h
[34] = AUC (0 to infinity) in Sprague-Dawley rat at 2 mg/kg, iv administered as single dose by LC-MS/MS analysis; type: ADME, organism-based; design: dose 2 mg/kg, time infinity, route intravenous; details: in vivo
[35] = Ratio of LC50 for human HeLa cells to EC50 for IDO1 in IFN-gamma-stimulated human HeLa cells; type: toxicity
[36] = Solubility of the compound in water; type: physicochemical
[37] = Cmax in Sprague-Dawley rat at 100 mg/kg, po administered as single dose via gavage by LC-MS/MS analysis; type: ADME, organism-based; design: dose 100 mg/kg, route oral; details: in vivo

T2 sequence (P14902 whole entry, the tested form may be a part): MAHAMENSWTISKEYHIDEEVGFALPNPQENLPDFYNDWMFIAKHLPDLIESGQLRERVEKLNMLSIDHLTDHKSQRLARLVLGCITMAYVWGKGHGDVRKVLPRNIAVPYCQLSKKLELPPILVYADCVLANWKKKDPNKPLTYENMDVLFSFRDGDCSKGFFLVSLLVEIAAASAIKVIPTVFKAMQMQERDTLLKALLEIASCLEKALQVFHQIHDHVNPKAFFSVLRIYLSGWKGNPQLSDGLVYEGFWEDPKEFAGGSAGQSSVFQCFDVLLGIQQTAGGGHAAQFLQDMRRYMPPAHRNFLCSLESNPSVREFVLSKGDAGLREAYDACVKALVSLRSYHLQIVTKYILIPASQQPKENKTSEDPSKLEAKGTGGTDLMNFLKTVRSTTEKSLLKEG
Histone deacetylase 2, sequence (Q92769 whole entry): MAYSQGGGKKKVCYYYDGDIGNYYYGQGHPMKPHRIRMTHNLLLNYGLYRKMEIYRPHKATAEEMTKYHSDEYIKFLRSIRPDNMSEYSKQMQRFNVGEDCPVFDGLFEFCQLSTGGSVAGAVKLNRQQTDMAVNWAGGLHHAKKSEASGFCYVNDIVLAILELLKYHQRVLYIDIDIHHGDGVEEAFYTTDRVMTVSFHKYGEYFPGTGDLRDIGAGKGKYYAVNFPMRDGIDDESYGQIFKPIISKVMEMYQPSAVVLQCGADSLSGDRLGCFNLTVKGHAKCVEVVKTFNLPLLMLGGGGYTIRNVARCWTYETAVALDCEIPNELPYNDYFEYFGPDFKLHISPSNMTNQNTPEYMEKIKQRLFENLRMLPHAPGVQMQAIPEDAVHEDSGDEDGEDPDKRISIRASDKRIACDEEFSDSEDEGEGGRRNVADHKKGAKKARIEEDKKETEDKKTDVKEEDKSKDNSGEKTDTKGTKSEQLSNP
Histone deacetylase 3, sequence (O15379 whole entry): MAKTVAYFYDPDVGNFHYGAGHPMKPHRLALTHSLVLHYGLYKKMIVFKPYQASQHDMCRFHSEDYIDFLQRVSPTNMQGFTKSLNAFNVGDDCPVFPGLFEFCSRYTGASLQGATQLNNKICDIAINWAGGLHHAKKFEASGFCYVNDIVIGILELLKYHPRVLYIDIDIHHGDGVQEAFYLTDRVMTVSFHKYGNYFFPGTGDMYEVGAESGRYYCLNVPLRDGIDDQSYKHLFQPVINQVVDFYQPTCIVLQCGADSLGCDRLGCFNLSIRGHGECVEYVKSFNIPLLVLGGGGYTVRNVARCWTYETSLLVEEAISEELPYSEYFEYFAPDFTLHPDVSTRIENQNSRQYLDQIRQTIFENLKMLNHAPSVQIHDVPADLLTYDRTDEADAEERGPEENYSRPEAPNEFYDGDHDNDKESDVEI
Histone deacetylase 1, sequence (Q13547 whole entry): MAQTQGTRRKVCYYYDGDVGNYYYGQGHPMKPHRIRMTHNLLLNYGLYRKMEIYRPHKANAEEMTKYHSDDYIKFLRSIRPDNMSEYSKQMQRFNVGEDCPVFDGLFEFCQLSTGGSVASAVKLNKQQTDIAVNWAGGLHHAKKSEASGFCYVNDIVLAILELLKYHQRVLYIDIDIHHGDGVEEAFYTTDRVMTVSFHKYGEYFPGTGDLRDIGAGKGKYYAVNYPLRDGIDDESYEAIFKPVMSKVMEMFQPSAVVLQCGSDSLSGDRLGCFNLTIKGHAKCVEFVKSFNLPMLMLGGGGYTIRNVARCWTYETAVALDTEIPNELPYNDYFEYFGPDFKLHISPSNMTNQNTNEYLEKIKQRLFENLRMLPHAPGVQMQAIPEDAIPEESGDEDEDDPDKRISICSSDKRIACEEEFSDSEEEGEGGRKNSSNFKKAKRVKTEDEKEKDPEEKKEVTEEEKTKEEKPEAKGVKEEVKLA

Structure (SMILES): Nc1ccccc1NC(=O)c1ccc(C(=O)NCCNc2nonc2/C(=N/O)Nc2ccc(F)c(Br)c2)cc1
- IC50 [1]: 66.5 nM
- Activity [2]: Tde
- IC50 [3]: 17.6 µM
- Stability [4]: Stable
- Activity [5]: Non-Toxic
- half-life at 1 µM [6]: 48.4 min
- Activity [7]: 29.9%
- IC50 [8]: 16.7 µM
- half-life [9]: 204 min
- inhibition [10]: Active
- IC50 [11]: 70 nM
- Activity [12]: 47.4%
- bioavailability [13]: 18%
- LC50 [14]: 24.77 µM
- IC50 [15]: 179 nM
- IC50 [16]: 59.8 µM
- half-life [17]: 204 min
- IC50 [18]: 69 nM
- AUC [19]: 60 µM·h
- Activity [20]: 18.8%
- Activity [21]: 48.9%
- Tmax [22]: 2 h
- inhibition in vivo at 100 mg/kg [23]: 56%
- Cmax [24]: 12000 ng/mL
- Tmax [25]: 4.98 min
- IC50 [26]: 11.7 µM
- IC50 [27]: 45 nM
- AUC(0-inf) [28]: 33500 ng·h/mL
- EC50 [29]: 410 nM
- CL(app) [30]: 0.0287 mL/min/mg
- Activity [31]: Dose-dependent effect
- half-life [32]: 84 min
- IC50 [33]: 5.12 µM
- AUC(0-inf) [34]: 3650 ng·h/mL
- selectivity ratio [35]: 60.4
- solubility [36]: < 10 µg/mL
- Cmax [37]: 5760 ng/mL
